Test results as given in patent US10806798B2, “Compound with effects of thrombolysis, free radical scavenging and thrombus-targeting” (Shanghai Lumosa Therapeutics Co., Ltd., priority 2012, dated 2020).

Tests used:
[1] = test system: rats with stroke; experiment: Immediate treatment after stroke onset with different dosages of Ie (Zealonga scores); format: in vivo, SD rats
Method: A 10% chloral hydrate solution (400 mg/kg) was injected intraperitoneally into male SD rats (250 to 300 g) for anesthesia. An incision of about 2 cm in length was longitudinally made slightly on the right to the center of the neck, and the right carotid common artery, carotid external artery and carotid internal artery were dissected along the margin of the inner side of sternocleidomastoid muscles. The open incision in the carotid internal artery and the proximal end of the common carotid artery were occluded respectively with noninvasive arterial clips. A small incision was made on the carotid external artery, and the distal end of the carotid external artery was ligated. The arterial clip at the proximal end of the carotid external artery was released, and 10 μl blood was drawn before the proximal end of the common carotid artery was again occluded with a noninvasive arterial clip. The 10 μl blood drawn was placed in a 1 mL EP vial and kept at RT for 30 min until coagulation of blood, and then transferred into a −20° C. refrigerator for 1 h to allow solid coagulation. After 1 h, the blood clots were taken out, added into 1 mL saline, and then broken into relatively uniform microthrombus by using a steel spatula. The microthrombus suspension was then transferred into a 1 mL injector until use. At the same time when the clip on the carotid internal artery of the rat was released, the 1 mL thrombus suspension in the injector was slowly injected from the carotid external artery of the rat to its proximal end, and then was injected into the brain of the rat through the carotid internal artery. Subsequently, the proximal end of the carotid external artery was ligated, the arterial clips on the carotid internal artery and the carotid common artery were released, and blood flow was restored. Injection of urokinase in normal saline (positive control group, at a dosage of 20000 IU/kg), tPA in normal saline (positive control group, at a dosage of 3 mg/kg), normal saline (blank control group, at a dosage of 3 mL/kg), or compound Ie in normal saline (at a dosage of 1 μmol/kg, 0.1 μmol/kg or 0.01 μmol/kg) was carried out. 24 h after the rats were awake, the degree of damage in neural function was evaluated by the Zealonga method. A score of 0 indicated no sign of loss in neural function, 1 indicated the front limbs on the undamaged side could not stretch out, 2 indicated walking toward the undamaged side, 3 indicated tail-chasing walking in circles toward the undamaged side, 4 indicated involuntary walking with disturbance of consciousness, and 5 indicated death. As shown in the results, in rats receiving immediate treatment after the onset of stroke with […] compound Ie, the percentage of rats with a neural function score of 0 was 60%, 30%, and 0%, respectively; and the percentage of rats with a neural function score of 1 was 20%, 30%, and 10%, respectively.

[2] = test system: rats with stroke; experiment: Successive treatments starting 4 h after the onset of stroke (Zealonga scores); format: in vivo, SD rats; conditions: for number of rats scored Score 0 / number of rats scored Score 1 / number of rats scored Score 2: urokinase 20000 IU/kg once per day from 4 h after stroke onset, n=6
Method: The efficacy was represented by neural function scores, and a lower score indicates higher efficacy. A 10% chloral hydrate solution was injected intraperitoneally into male SD rats at a dosage of 400 mg/kg body weight for anesthesia. A longitudinal incision was made at the center of the neck, and the right carotid common artery trunk was dissected (about 3 cm in length). Carotid external artery branches were each dissected and ligated at the hyoid level, and the carotid internal artery was dissected at the swollen part of the neck. The open incision in the carotid internal artery and the proximal end of the common carotid artery were occluded respectively with noninvasive arterial clips, and the distal end of the carotid external artery was ligated. A catheter containing 0.5 mL thrombus suspension in normal saline was inserted in the carotid external artery trunk. At the same time when the clip on the carotid internal artery was released, the 0.5 mL thrombus suspension in normal saline in the catheter slowly flew from the carotid external artery to its proximal end, and then was injected into the arteries in brain through the carotid internal artery. Subsequently, the proximal end of the carotid artery was ligated, the arterial clips on the carotid internal artery and the common carotid artery were released, and blood flow was restored. After the wound was stitched up, 20,000 IU penicillin was intramuscularly injected for prevention from infection. After 4 h, compound Ie in normal saline (at a dosage of 1 μmol/kg, n=1), urokinase in normal saline (at a dosage of 20000 IU/kg, n=6) or tPA in normal saline (at a dosage of 3 mg/kg, n=6) was infused through the tail vein. Infusion of compound Ie in normal saline through rat tail vein was carried out once per day for 6 consecutive days, observed for 7 days. The rats were compared to themselves each day, and evaluated for degree of damage in neural function by the Zealonga method. Alternatively, infusion of urokinase in normal saline through rat tail vein was carried out once per day for two consecutive days, the rats were compared to themselves each day, and evaluated for the degree of damage in neural function by the Zealonga method. Alternatively, infusion of tPA in normal saline through rat tail vein was carried out once per day for two consecutive days, the rats were compared to themselves each day, and evaluated for the degree of damage in neural function by the Zealonga method. A score of 0 indicated no sign of loss in neural function, 1 indicated the front limbs on the undamaged side could not stretch out, 2 indicated walking toward the undamaged side, 3 indicated tail-chasing walking in circles toward the undamaged side, 4 indicated involuntary walking with disturbance of consciousness, and 5 indicated death.

urokinase
percentage of rats with a neural function score of 0 ([1]; 20000 IU/kg urokinase): 10%
percentage of rats with a neural function score of 1 ([1]; 20000 IU/kg urokinase): 50%
number of rats scored Score 0 ([1]; urokinase 20000 IU/kg, n = 10): 1
number of rats scored Score 1 ([1]; urokinase 20000 IU/kg, n = 10): 5
number of rats scored Score 2 ([1]; urokinase 20000 IU/kg, n = 10): 0
number of rats scored Score 3 ([1]; urokinase 20000 IU/kg, n = 10): 3
number of rats scored Score 4 ([1]; urokinase 20000 IU/kg, n = 10): 1
number of rats scored Score 5 ([1]; urokinase 20000 IU/kg, n = 10): 0
number of rats scored Score 0 ([2]; Day 1): 2 rats
number of rats scored Score 1 ([2]; Day 1): 3 rats
number of rats scored Score 2 ([2]; Day 1): 1 rat rats
number of rats scored Score 0 ([2]; Day 2): 3 rats
number of rats scored Score 1 ([2]; Day 2): 1 rat^ rats
number of rats scored Score 2 ([2]; Day 2): 1 rat rats
rats died ([2]; out of 6 rats, within 48 h, urokinase 20000 IU/kg each day from 4 h after stroke onset): 2
autopsy on the dead rats ([2]; urokinase 20000 IU/kg each day from 4 h after stroke onset): hemorrhage in internal organs, particularly severe hemorrhage in lungs
